# Test results as given in patent publication US20150259344A1, “IMIDAZOLE DERIVATIVE” (DAINIPPON SUMITOMO PHARMA CO., LTD., priority 2012, published 2015).
# Target: T1, human α7 nAChR (Homo sapiens, UniProt P36544)
# T1 construct: expressed in transfected cells
# Experiment: Evaluation of PAM activity with human α7 nACh receptor stably expressing cells (aequorin luminescence, FDSS7000)
# Type: cell-based
# Details: 1 μM test compound (values marked *, footnote of Table 25); ACh at EC20; ratio of RLU (Max-Min) to control wells; read-out: α7PAM (%) @1 μM
# Description: Evaluation of PAM activity with human α7 nACh receptor stably expressing cells
# (1) Human α7 nAChR stably expressing cells
# Human α7 nAChR stably expressing cells were generated and cultured.
# Thus, the cells were subcultured.
# Seven days after subculturing, the cells were treated with TrypLE Express to collect them when they were about 80% confluent.
# On the next day after seeding, Viviren (cat#E649X, Promega, Madison, Wis., USA) was added to the medium so that the final concentration could be 4 μM (15 μL/well). The plates were centrifuged and then placed in the dark for 4 hours at room temperature.
# (2) Preparation of the Test Samples
# Each of the test compounds was dissolved in DMSO to prepare each test sample at a concentration of 1000-fold the final concentration. To the solution was added Hanks/20 mM HEPES/0.2% BSA (cat#A3803, Sigma, St. Louis, Mo., USA), and the concentration was adjusted to 6-fold the final concentration.
# (3) Evaluation of PAM Activity
# FDSS7000 (Hamamatsu Photonics) was used to detect the luminescence signal evoked by α7 nAChR stimulation. The cells and a luminescent substrate were put on a plate, and the test sample was added thereto. […] The ratio of the RLU (Max-Min) of the test-compound-containing wells to that of the control wells was defined as PAM activity.
# T1 sequence (P36544 23-502): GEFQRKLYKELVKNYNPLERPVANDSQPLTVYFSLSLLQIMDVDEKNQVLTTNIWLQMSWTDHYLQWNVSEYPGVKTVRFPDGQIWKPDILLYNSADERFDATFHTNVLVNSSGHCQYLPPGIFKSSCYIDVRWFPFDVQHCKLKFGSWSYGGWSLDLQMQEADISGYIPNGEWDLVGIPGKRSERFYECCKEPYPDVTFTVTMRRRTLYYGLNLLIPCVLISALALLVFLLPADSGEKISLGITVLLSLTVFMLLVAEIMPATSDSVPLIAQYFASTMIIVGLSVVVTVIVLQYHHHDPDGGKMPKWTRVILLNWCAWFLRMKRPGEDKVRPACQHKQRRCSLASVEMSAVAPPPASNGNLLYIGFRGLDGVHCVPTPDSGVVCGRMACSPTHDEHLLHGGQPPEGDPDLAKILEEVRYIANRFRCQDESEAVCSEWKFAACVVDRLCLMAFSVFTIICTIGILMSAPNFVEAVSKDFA
row,SMILES,activity at 1 µM
1,CC(C)(F)C(=O)N[C@H]1CC[C@@H](n2cnc(-c3cc(F)c(F)cc3Cl)c2)CC1 [Example 317],345%
2,N#Cc1c(-c2cc(F)ccc2F)ncn1[C@@H]1C[C@H]2CC[C@@H](C1)N2C(=O)C1CCC(F)(F)CC1 [Example 464],124%
3,O=C(C1CCC(F)(F)CC1)N1[C@@H]2CC[C@H]1C[C@H](n1cnc(-c3cc(F)ccc3F)c1)C2 [Example 451],143%
4,N#Cc1c(-c2ccc(F)cc2F)ncn1[C@H]1C[C@H]2CC[C@@H](C1)N2C(=O)C1CCC(F)(F)CC1 [Example 443],368%

# Same assay, conditions: 10 μM test compound; ACh at EC20; ratio of RLU (Max-Min) to control wells; read-out: α7PAM (%) @10 μM
row,SMILES,activity at 10 µM
1,O=C(NC1CCCCC1)N1CCC(n2cnc(-c3ccc(C(F)(F)F)cc3)c2)CC1 [Example 23],209%
2,Cc1c(-c2ccc(F)cc2)ncn1[C@H]1CC[C@@H](NC(=O)C2CCC(F)(F)CC2)CC1 [Example 353],518%
3,O=C(NC1CCCC1)N1CCC(n2cnc(-c3cccc(F)c3)c2)CC1 [Example 30],319%
4,O=C(NC1CCCCC1)N1[C@@H]2CC[C@H]1C[C@H](n1cnc(-c3ccc(F)cc3)c1)C2 [Example 405],402%
5,O=C(NC1CCOCC1)N1CCC(n2cnc(-c3cccc(F)c3)c2)CC1 [Example 244],175%
6,O=C(NC1CCCC1)N1CCC(n2cnc(-c3ccccc3)c2)CC1 [Example 36],193%
7,O=C(NC1CCCCC1)N1CCC(n2cnc(-c3cccc(OC(F)F)c3)c2)CC1 [Example 53],256%
8,O=C(C1CCC(F)(F)CC1)N1[C@@H]2CC[C@H]1C[C@H](n1cnc(-c3ccccc3)c1)C2 [Example 449],183%
9,O=C(C1CCOCC1)N1[C@@H]2CC[C@H]1C[C@@H](n1cnc(-c3cc(F)ccc3F)c1Cl)C2 [Example 438],235%
10,CC(C)(F)C(=O)N[C@H]1CC[C@@H](n2cnc(-c3ccc(F)c(F)c3)c2)CC1 [Example 310],227%
11,Fc1ccc(-c2ncn([C@H]3CC[C@@H](Nc4cc(C(F)(F)F)ncn4)CC3)c2Cl)cc1 [Example 237],405%
12,O=C(NC1CCCCC1)N1CCC(n2cnc(-c3ccc(F)c(F)c3)c2)CC1 [Example 26],563%
13,"O=C(NC1CCCCC1)[C@H]1CC[C@@H](n2cnc(-c3ccccc3)c2)CC1 [Example 9, cis-N-Cyclohexyl-4-(4-phenyl-1H-imidazol-1-yl)cyclohexanecarboxamide]",121%
14,N#Cc1c(-c2ccc(F)cc2)ncn1[C@H]1CC[C@@H](NC(=O)C2CCOCC2)CC1 [Example 336],557%
15,N#Cc1c(-c2ccc(C(F)(F)F)cc2)ncn1[C@H]1CC[C@@H](C(=O)NC2CCOCC2)CC1 [Example 377],988%
16,CC(C)(F)C(=O)N[C@H]1CC[C@@H](n2cnc(-c3ccccc3OC(F)(F)F)c2)CC1 [Example 311],290%
17,O=C(NC1CCCCC1)N1CCC(n2cnc(-c3ccc4c(c3)CCO4)c2)CC1 [Example 43],250%
18,O=C(NC1CCCCC1)N1CCC(n2cnc(-c3ccc(Cl)s3)c2)CC1 [Example 117],853%
19,O=C(NC1CCCCC1)N1CCC(n2cnc(-c3ccncc3)c2Cl)CC1 [Example 135],154%
20,O=C(C1CCC(F)(F)CC1)N1[C@@H]2CC[C@H]1C[C@@H](n1cnc(-c3cccc(F)c3F)c1Cl)C2 [Example 439],813%
21,COc1ccc(-c2ncn(C3CCN(C(=O)C4CCC(F)(F)CC4)CC3)c2Cl)cc1 [Example 148],700%
22,O=C(C1CCOCC1)N1CCC(n2cnc(-c3ccc(F)cc3)c2Cl)CC1 [Example 151],155%
23,O=C(C1CCC(F)(F)CC1)N1CCC(n2cnc(-c3ccccc3)c2Cl)CC1 [Example 152],945%
24,CC(C)(F)C(=O)N1CCC(n2cnc(-c3ccc(F)cc3)c2Cl)CC1 [Example 263],193%

row,SMILES,activity at 10 µM
1,N#Cc1c(-c2cc(F)ccc2F)ncn1[C@H]1C[C@H]2CC[C@@H](C1)N2C(=O)C1CCC(F)(F)CC1 [Example 444],208%
2,COC1CCC(C(=O)N2CCC(n3cnc(-c4ccccc4)c3)CC2)CC1 (stereo not drawn) [Example 142],163%
3,Cc1c(-c2ccc(F)cc2)ncn1C1CCN(C(=O)C2CCOCC2)CC1 [Example 276],244%
4,O=C(N[C@H]1CC[C@@H](n2cnc(-c3ccc(F)cc3)c2Cl)CC1)C1CCOCC1 [Example 323],421%
5,CC(C)(C)NC(=O)N1CCC(n2cnc(-c3ccccc3)c2CO)CC1 [Example 111],153%
6,O=C(NC1CCOCC1)N1[C@@H]2CC[C@H]1C[C@@H](n1cnc(-c3cccc(F)c3F)c1Cl)C2 [Example 399],891%
7,O=C(NC1CCOCC1)[C@H]1CC[C@@H](n2cnc(-c3cc(F)ccc3F)c2Cl)CC1 [Example 368],941%
8,O=C(NC1CC2CCC1C2)N1CCC(n2cnc(-c3ccccc3)c2)CC1 (stereo not drawn) [Example 38],311%
9,O=C(NC1CCCCC1)N1[C@@H]2CC[C@H]1C[C@H](n1cnc(-c3cc(F)ccc3F)c1)C2 [Example 411],229%
10,Cc1c(-c2ccc(F)cc2)ncn1[C@H]1CC[C@@H](NC(=O)C2CCOCC2)CC1 [Example 352],164%
11,O=C(NC1CCC(F)(F)CC1)N1[C@@H]2CC[C@H]1C[C@H](n1cnc(-c3ccc(F)cc3F)c1)C2 [Example 407],904%
12,CC(C)(F)C(=O)N[C@H]1CC[C@@H](n2cnc(-c3ccccc3)c2Cl)CC1 [Example 172],480%
13,CCOc1ccc(-c2cn(C3CCN(C(=O)NC4CC5CCC4C5)CC3)cn2)cc1 (stereo not drawn) [Example 58],318%
14,CC(C)(C)C(=O)N[C@H]1CC[C@@H](n2cnc(-c3ccccc3)c2Cl)CC1 [Example 167],221%
15,O=C(NC1CCCCC1)N1CCC(n2cnc(-c3ccc(OC(F)F)cc3)c2)CC1 [Example 54],371%
16,O=C(NC1CCCCC1)N1CCC(n2cnc(-c3ccc(C(F)(F)F)cn3)c2)CC1 [Example 131],738%
17,Cc1ccc(-c2cn(C3CCN(C(=O)NC4CCCC4)CC3)cn2)s1 [Example 122],459%
18,O=C(N[C@H]1CC[C@H](n2cnc(-c3ccccc3)c2Cl)CC1)C1CCCCC1 [Example 206],102%
19,N#Cc1c(-c2ccccc2)ncn1C1CCN(C(=O)C2CC(F)(F)C2)CC1 [Example 268],725%
20,CC(C)(C)C(=O)N[C@H]1CC[C@@H](n2cnc(-c3ccc(OC(F)(F)F)cc3)c2)CC1 [Example 279],236%
21,O=C(N[C@H]1CC[C@@H](n2cnc(-c3ccccc3)c2Cl)CC1)C1CCC(F)(F)CC1 [Example 169],454%
22,O=C(C1CCC(F)(F)CC1)N1CCC(n2cnc(-c3ccc(F)cc3)c2)CC1 [Example 261],399%
23,O=C(C1CCC(F)(F)CC1)N1[C@@H]2CC[C@H]1C[C@@H](n1cnc(-c3ccccc3F)c1Cl)C2 [Example 434],512%

# Same assay, conditions: GH4-C1, 10 μM test compound; ratio of RLU (Max-Min) of test wells to control wells after ACh at EC20; GH4C1 cells expressing human α7 nAChR and aequorin; read-out: α7PAM (%) @10 μM
row,SMILES,activity at 10 µM
1,CC(C)(C)NC(=O)[C@H]1CC[C@H](n2cnc(-c3ccccc3)c2)CC1 [Example 232],113%
2,O=C(NC1CCCCC1)[C@H]1CC[C@H](n2cnc(-c3ccccc3)c2)CC1 [Example 231],149%
3,O=C(NC1CCCCC1)[C@H]1CC[C@H](n2cnc(-c3ccccc3)c2Cl)CC1 [Example 233],102%
